Test results: ChEMBL document CHEMBL5131393 (J Med Chem, 2021)

How the values were obtained:
[1] = target: Human immunodeficiency virus type 1 reverse transcriptase (Human immunodeficiency virus 1, UniProt Q72547); assay: Inhibition of recombinant HIV-1 reverse transcriptase incubated for 2 hrs by colorimetric assay
TZM = assay: Cytotoxicity against human TZM-bl cells assessed as reduction in cell viability measured after 3 days by XTT assay; assay type: functional; settings: 72 h, time 3 day
[2] = system: Human immunodeficiency virus 1; assay: Antiviral activity against HIV-1 pseudovirus infected in human TZM-bl cells preincubated with virus for 30 mins followed by cell infection and measured after 3 days by luciferase assay; assay type: functional, organism-based; settings: Human immunodeficiency virus 1, TZM-bl
[3] = target: Human immunodeficiency virus type 1 reverse transcriptase (Human immunodeficiency virus 1) (UniProt Q72547); assay: Potency index, ratio of test compound IC50 to NBD-14189 IC50 for inhibition of recombinant HIV-1 reverse transcriptase incubated for 2 hrs by colorimetric assay

Cc1nc([C@H](CN)NC(=O)c2ccc(-c3ccc(Cl)c(F)c3)[nH]2)sc1CO
IC50 [1]: 8.3 µM
CC50 (TZM): 40.5 µM

NC[C@H](NC(=O)c1ccc(-c2ccc(C(F)(F)F)cc2)[nH]1)c1nc(CO)cs1
IC50 [1]: 1.5 µM
EC50 [2]: 89 nM
CC50 (TZM): 21.9 µM

Cc1cc(-c2ccc(C(F)(F)F)cn2)[nH]c1C(=O)N[C@@H](CN)c1ncc(CO)s1
CC50 (TZM): 109 µM
Ratio IC50 [3]: 2

CNCc1cc(-c2ccc3c(c2)OCO3)[nH]c1C(=O)NCc1nc(S)c(CO)s1
EC50 [2]: 2700 nM
CC50 (TZM): 95.8 µM

Cc1sc(C(CO)NC(=O)c2[nH]c(-c3ccc4c(c3)OCO4)cc2CN)nc1S (stereo not drawn)
IC50 [1]: 30.6 µM
EC50 [2]: 2300 nM
CC50 (TZM): 146 µM

CC1(C)CC(NC(=O)C(=O)Nc2ccc(Cl)cc2)CC(C)(C)N1
IC50 [1]: > 200 µM
CC50 (TZM): 60 µM

Cc1nc([C@@H](CN)NC(=O)c2ccc(-c3ccc(F)c(F)c3)[nH]2)sc1CO
EC50 [2]: 3300 nM
CC50 (TZM): 84.1 µM

NC[C@@H](NC(=O)c1ccc(-c2ccc(C(F)(F)F)cn2)[nH]1)c1ncc(C(O)CO)s1 (stereo partly drawn)
EC50 [2]: 2100 nM
CC50 (TZM): > 113 µM

NCc1cc(-c2ccc3c(c2)OCO3)[nH]c1C(=O)NC(CO)c1nc(S)cs1 (stereo not drawn)
IC50 [1]: 39.5 µM
EC50 [2]: 4300 nM
CC50 (TZM): 142 µM

NC[C@@H](NC(=O)c1ccc(-c2ccc(Cl)c(F)c2)[nH]1)c1ncc(CO)s1
IC50 [1]: 13.7 µM
EC50 [2]: 570 nM
CC50 (TZM): 33 µM

Cc1nc(C(CNC2CCC2)NC(=O)c2ccc(-c3ccc(Cl)cc3)[nH]2)sc1CO (single isomer, unassigned)
IC50 [1]: 43.4 µM
EC50 [2]: 2200 nM
CC50 (TZM): 24 µM
Ratio IC50 [3]: 31

Cc1cc(-c2ccc(C(F)(F)F)cn2)[nH]c1C(=O)N[C@H](CN)c1nc(CO)cs1
IC50 [1]: 5 µM
CC50 (TZM): 85 µM

NC[C@H](NC(=O)c1ccc(-c2cc(F)c(Cl)c(F)c2)[nH]1)c1ncc(CO)s1
IC50 [1]: 8.4 µM
CC50 (TZM): 39.5 µM

Cc1ccc(-c2ccc(C(=O)N[C@H](CN)c3ncc(CO)s3)[nH]2)cc1F
IC50 [1]: 7.2 µM
EC50 [2]: 450 nM
CC50 (TZM): 38.8 µM

NC[C@H](NC(=O)c1ccc(-c2ccc(C(F)(F)F)cn2)[nH]1)c1nc(CO)cs1
IC50 [1]: 2.8 µM
EC50 [2]: 300 nM
CC50 (TZM): 124 µM
